Values after ≈ are worked out from the molar mass of the structure shown.
Key:
K562 = test: Cytotoxicity against human K562 cells assessed as reduction in cell viability; type: functional, cell-based
[1] = molecular target: Heat shock protein HSP 90-alpha (Homo sapiens, UniProt P07900); test: Inhibition of HSP90alpha (unknown origin)
HL-60 [2] = test: cells; conditions: Homo sapiens
Description: (§1) Cytotoxicity against human HL60 cells assessed as reduction in cell viability

[3] = test system: Bacillus amyloliquefaciens; test: Antibacterial activity against Bacillus amyloliquefaciens; type: functional
A549 = test: Cytotoxicity against human A549 cells assessed as reduction in cell viability; type: functional, cell-based
MCF7 [4] = test: cells; conditions: Homo sapiens
Staphylococcus aureus = test: Antibacterial activity against Staphylococcus aureus; type: functional
Shewanella oneidensis = test: Antibacterial activity against Shewanella oneidensis MR-1; type: functional
MCF7 [5] = test system: MCF7
HL-60 [6] = test system: HL-60
Description: as §1

Human alphaherpesvirus 1 = test: Antiviral activity against HSV-1 by plaque reduction assay; type: functional, organism-based
[7] = Cytotoxicity against African green monkey Vero cells assessed as reduction in cell viability; type: cell-based; conditions: chlorocebus sabaeus
[8] = Homo sapiens, K562, read-out: IC50

| Compound | IC50 (K562; [8]) [µM] | IC50 ([1]; read-out: IC50) [µM] | IC50 (HL-60 [2]) [µM] | MIC [3] [µg/mL] | IC50 (A549) [µM] | IC50 (MCF7 [4]) [µM] | MIC (Staphylococcus aureus) [µg/mL] | MIC (Shewanella oneidensis) [µg/mL] | IC50 (K562; k562) | IC50 (MCF7 [5]) | IC50 (HL-60 [6]) | IC50 [1] | IC50 (Human alphaherpesvirus 1) [µM] | CC50 [7] [µM] | MNTC ([7]; read-out: MNCC) [µM] |
| --- | --- | --- | --- | --- | --- | --- | --- | --- | --- | --- | --- | --- | --- | --- | --- |
| CO[C@H]1/C=C\C=C(/C)C(=O)NC2=CC(=O)C(O)=C(C[C@@H](C)C[C@H](OC)[C@H](O)[C@@H](C)/C=C(\C)[C@@H]1OC(N)=O)C2=O | 4.8 | 4.1 | 36 | > 200 | 7.7 | 9.9 | > 200 | > 200 | – | – | – | – | – | – | – |
| CO[C@H]1C[C@H](C)Cc2cc(cc(O)c2O)NC(=O)/C(C)=C/CC[C@H](OC)[C@@H](OC(N)=O)/C(C)=C/[C@H](C)[C@H]1O | – | 0.03 | – | > 200 | > 50 | – | > 200 | > 200 | Not Active | Not Active | Not Active | – | – | – | – |
| COc1c(O)cc2c3c1C[C@@H](C)C[C@H](OC)[C@H](O3)[C@@H](C)/C=C(\C)[C@H](OC(N)=O)[C@@H](OC)/C=C/C=C(\C)C(=O)N2 | 43 | – | 35 | > 200 | 37 | 36 | > 200 | > 200 | – | – | – | Not Active | – | – | – |
| CC[C@H]1/C=C/[C@@H]([C@H](C)O)OC(=O)/C(C)=C/CC(=O)Nc2cc(O)cc3c2O[C@@]2(CC1)CC(=O)[C@@H](C)[C@H]3O2 | – | – | – | – | – | – | – | – | – | – | – | – | 19 | 510 | 160 |
| COc1c(O)cc2c3c1C[C@@H](C)C[C@H](OC)[C@H](O3)[C@@H](C)/C=C(\C)[C@H](OC(N)=O)[C@@H](OC)CC/C=C(\C)C(=O)N2 | 43 | – | 86 | > 200 | 65 | 70 | > 200 | > 200 | – | – | – | Not Active | – | – | – |
| COc1c(O)cc2c3c1C[C@@H](C)C[C@H](OC)[C@H](O3)[C@@H](C)/C=C(\C)[C@H](OC(N)=O)[C@@H](OC)C[C@@H](O)/C=C(\C)C(=O)N2 | > 100 | 96 | – | 100 (≈ 178 µM) | > 100 | > 100 | 50 (≈ 88.9 µM) | > 200 | – | – | Not Active | – | – | – | – |
| COc1c(O)cc2c3c1C[C@@H](C)C[C@H](OC)[C@H](O3)[C@@H](C)/C=C(\C)[C@H](OC(N)=O)[C@@H](OC)/C=C\C=C(\C)C(=O)N2 | 18 | – | 48 | > 200 | 13 | 35 | > 200 | > 200 | – | – | – | Not Active | – | – | – |
| COc1c(O)cc2c3c1C[C@@H](C)C[C@H](OC)[C@H](O3)[C@@H](C)/C=C(\C)[C@H](OC(N)=O)[C@@H](OC)/C=C\C=C(/C)C(=O)N2 | 14 | – | 27 | > 200 | 16 | 20 | > 200 | > 200 | – | – | – | Not Active | – | – | – |
| COC1=C2C[C@@H](C)C[C@H](OC)[C@H](O)[C@@H](C)/C=C(\C)[C@H](OC(N)=O)[C@@H](OC)/C=C\C=C(/C)C(=O)NC(=CC1=O)C2=O [GELDANAMYCIN] | – | – | – | > 200 | – | – | > 200 | > 200 | – | – | – | – | – | – | – |
| CO[C@H]1/C=C\C=C(/C)C(=O)NC2=CC(=O)C=C(C2=O)[C@H](OC)[C@@H](C)C[C@H](OC)[C@H](O)[C@@H](C)/C=C(\C)[C@@H]1OC(N)=O [HERBIMYCIN C] | 20 | 31 | 56 | 100 (≈ 178 µM) | 19 | 20 | 50 (≈ 89.2 µM) | > 200 | – | – | – | – | – | – | – |
| CC(=O)O[C@H]1C(=O)[C@@]2(C)[C@H]([C@H](OC(=O)c3ccccc3)[C@]3(O)C[C@H](OC(=O)[C@H](O)[C@@H](NC(=O)c4ccccc4)c4ccccc4)C(C)=C1C3(C)C)[C@]1(OC(C)=O)CO[C@@H]1C[C@@H]2O [PACLITAXEL] | – | – | – | – | – | – | – | – | – | – | – | Not Active | – | – | – |
| COc1c(O)cc2cc1C[C@@H](C)C[C@H](OC)[C@H](O)[C@@H](C)/C=C(\C)[C@H](OC(N)=O)[C@@H](OC)CC/C=C(\C)C(=O)N2 [REBLASTATIN] | – | 0.005 | – | > 200 | 0.7 | – | > 200 | > 200 | – | Not Active | Not Active | – | – | – | – |
